Experimental data: patent US10258235B2, “Method and device for the assessment of bowel function” (Purdue Pharma L.P., priority 2005, dated 2019)
Several values for one entry are separate records, joined by “and”; a condition that tells them apart may be missing. Equal values may be shown once. Entries after “also recorded” stand apart in the source; their conditions may differ. Read-outs that look alike come from different tables or passages of the source.

Tests used:
[1] = test system: patients with severe chronic pain of tumor and non-tumor origin; test: Mean pain (0-100 NAS) during the last 7 days before each visit, clinical Phase II study; type: in vivo, human; settings: for Mean Pain, Mean V5 / Mean Pain, Mean V3: NAS 0-100; for Mean Pain, Mean V3: end of titration visit (V3, baseline before naloxone)
Procedure: (§1) The method of the present invention and analog scales of the present invention were employed in a clinical Phase II study conducted in Europe.
(§2) For some analyses, the last observation was carried forward for those ITT subjects who discontinued after Visit 4 (ITT/LOCF). In other instances, only the available data were used (ITT non-missing).
(§3) The Per Protocol (PP) population included all randomized patients who completed the study (including the follow-up phase) without major protocol violations. […] Only deviations from the visit window of the maintenance phase visits (visit 4 and 5) were regarded as major protocol violations. Deviations from the other visits were regarded as minor protocol violations. […] 3. Primary Efficacy Variables
(§4) a) Mean Pain during the last 7 days prior to each visit, based on the patient's twice-daily assessment of pain intensity using the 0-100 numerical analogue scale (NAS) (0=no pain and 100=worst imaginable pain). Mean Pain was calculated for each study visit as the mean value of the daily mean values of all patient's diary entries from the last 7 days. b) Mean bowel function: patient's assessment, at each study visit, of bowel function during the last 7 days prior to each visit. Mean bowel function was calculated from the mean of the three 0-100 NAS scores: ease of defecation (0=easy/no difficulty, 100=severe difficulty), feeling of incomplete bowel evacuation (0=not at all, 100=very strong), and judgment of constipation (0=not at all, 100=very strong). 4. Analgesic Efficacy Results

[2] = test system: patients with severe chronic pain of tumor and non-tumor origin; settings: for Mean Bowel Function Score, Mean V3: end of titration visit (V3, baseline before naloxone); for mean bowel function (±SD) at Visit 4: Visit 4 (after 1 week of naloxone); for mean bowel function (±SD) at the end of the maintenance phase: PP population
Procedure: as §1, §2, §3, §4
Mean bowel function was calculated for each study visit from the mean of the three NAS values ease/difficulty of defecation, feeling of incomplete bowel evacuation and judgment of constipation.
In addition, two-sided 95% CIs (CI, confidence interval) for the difference in means between the treatment groups were provided. […] These analyses were performed for the ITT and PP populations.
The parameter estimates derived were taken to display a surface plot of the whole dose range investigated. Moreover, a contour plot of the bowel function with a granulation of 10 was performed.

C=CCN1CC[C@]23c4c5ccc(O)c4O[C@H]2C(=O)CC[C@@]3(O)[C@H]1C5 [Naloxone, naloxone]
Mean Pain, Mean V5 ([1]; ITT non-missing, end of maintenance visit (V5, 4 weeks), naloxone 10 mg/day plus oxycodone 40-80 mg/day): 37.2 | Mean Pain, Mean V5 ([1]; ITT non-missing, end of maintenance visit (V5, 4 weeks), naloxone 20 mg/day plus oxycodone 40-80 mg/day): 37.5 | Mean Pain, Mean V5 ([1]; ITT non-missing, end of maintenance visit (V5, 4 weeks), naloxone 40 mg/day plus oxycodone 40-80 mg/day): 38.7 | Mean Pain, Mean V3 ([1]; ITT non-missing, naloxone 10 mg/day group, oxycodone 40-80 mg/day): 35.9 | Mean Pain, Mean V3 ([1]; ITT non-missing, naloxone 20 mg/day group, oxycodone 40-80 mg/day): 39.8 | Mean Pain, Mean V3 ([1]; ITT non-missing, naloxone 40 mg/day group, oxycodone 40-80 mg/day): 38.1 | Mean Pain, Mean V5 ([1]; PP, end of maintenance visit (V5), naloxone 10 mg/day plus oxycodone 40-80 mg/day): 38.8 | Mean Pain, Mean V5 ([1]; PP, end of maintenance visit (V5), naloxone 20 mg/day plus oxycodone 40-80 mg/day): 36.1 | Mean Pain, Mean V5 ([1]; PP, end of maintenance visit (V5), naloxone 40 mg/day plus oxycodone 40-80 mg/day): 38.7 | Mean Pain, Mean V3 ([1]; PP, naloxone 10 mg/day group): 38.0 | Mean Pain, Mean V3 ([1]; PP, naloxone 20 mg/day group): 40.1 | Mean Pain, Mean V3 ([1]; PP, naloxone 40 mg/day group): 39.0 | Analgesic efficacy / mean pain, active naloxone versus naloxone placebo (in words) ([1]; end of maintenance, naloxone 10-40 mg/day added to oxycodone 40-80 mg/day): did not point to a difference in analgesic efficacy; also recorded: no evidence of changes in mean pain with varying amounts of naloxone | Mean Bowel Function Score, Mean V5 ([2]; ITT (non-missing), end of maintenance (V5, 4 weeks), naloxone 10 mg/day plus oxycodone 40-80 mg/day, NAS 0-100, higher = worse): 40.3 | Mean Bowel Function Score, Mean V5 ([2]; ITT (non-missing), end of maintenance (V5, 4 weeks), naloxone 10 mg/day plus oxycodone 40-80 mg/day, NAS 0-100, higher = worse, listed as naloxone): 40.3 (±23.09) and 40.3 (±23.1) | Mean Bowel Function Score, Mean V5 ([2]; ITT (non-missing), end of maintenance (V5, 4 weeks), naloxone 20 mg/day plus oxycodone 40-80 mg/day, NAS 0-100, higher = worse): 31.3 | Mean Bowel Function Score, Mean V5 ([2]; ITT (non-missing), end of maintenance (V5, 4 weeks), naloxone 20 mg/day plus oxycodone 40-80 mg/day, NAS 0-100, higher = worse, listed as naloxone): 31.3 (±25.82) and 31.3 (±25.8) | Mean Bowel Function Score, Mean V5 ([2]; ITT (non-missing), end of maintenance (V5, 4 weeks), naloxone 40 mg/day plus oxycodone 40-80 mg/day, NAS 0-100, higher = worse): 26.1 | Mean Bowel Function Score, Mean V5 ([2]; ITT (non-missing), end of maintenance (V5, 4 weeks), naloxone 40 mg/day plus oxycodone 40-80 mg/day, NAS 0-100, higher = worse, listed as naloxone): 26.1 (±25.08) and 26.1 (±25.1) | Mean Bowel Function Score, Mean V3 ([2]; ITT non-missing, naloxone 10 mg/day group, NAS 0-100, higher = worse): 53.5 | Mean Bowel Function Score, Mean V3 ([2]; ITT non-missing, naloxone 20 mg/day group, NAS 0-100, higher = worse): 51.3 | Mean Bowel Function Score, Mean V3 ([2]; ITT non-missing, naloxone 40 mg/day group, NAS 0-100, higher = worse): 48.2 | Mean Bowel Function Score, Mean V5 ([2]; ITT/LOCF, end of maintenance visit (V5), naloxone 10 mg/day plus oxycodone 40-80 mg/day): 40.1 | Mean Bowel Function Score, Mean V5 ([2]; ITT/LOCF, end of maintenance visit (V5), naloxone 20 mg/day plus oxycodone 40-80 mg/day): 33.2 | Mean Bowel Function Score, Mean V5 ([2]; ITT/LOCF, end of maintenance visit (V5), naloxone 40 mg/day plus oxycodone 40-80 mg/day): 26.5 | Mean Bowel Function Score, Mean V3 ([2]; ITT/LOCF, naloxone 10 mg/day group): 53.6 | Mean Bowel Function Score, Mean V3 ([2]; ITT/LOCF, naloxone 20 mg/day group): 49.9 | Mean Bowel Function Score, Mean V3 ([2]; ITT/LOCF, naloxone 40 mg/day group): 47.7 | mean bowel function (±SD) at Visit 4 ([2]; ITT, naloxone 10 mg/day): 42.1 (±25.53) | mean bowel function (±SD) at Visit 4 ([2]; ITT, naloxone 20 mg/day): 34.2 (±30.04) | mean bowel function (±SD) at Visit 4 ([2]; ITT, naloxone 40 mg/day): 27.9 (±22.68) | mean bowel function (±SD) at the end of follow-up ([2]; ITT, end of two-week follow-up on oxycodone only, former 40 mg naloxone group): 42.4 (±23.19) | mean bowel function (±SD) at the end of the maintenance phase ([2]; naloxone 10 mg/day): 39.4 (±23.44) | mean bowel function (±SD) at the end of the maintenance phase ([2]; naloxone 20 mg/day): 29.8 (±29.29) | mean bowel function (±SD) at the end of the maintenance phase ([2]; naloxone 40 mg/day): 29.6 (±28.34) | effect of adding controlled release naloxone to controlled release oxycodone on mean bowel function (in words) ([2]; the two higher doses of naloxone (20 mg and 40 mg)): statistically significant improvement in mean bowel function
